Patent US7514443B2, “Substituted pyrazolo[1,5-a]pyrimidines as inhibitors of metabotropic glutamate receptors” (Hoffmann-La Roche Inc., priority 2003, dated 2009)

What was measured:
[1] = target: T1, rat mGlu2 receptor (Rattus norvegicus, UniProt P31421); experiment: [3H]-LY354740 binding on mGlu2 transfected CHO cell membranes; conditions: inhibition of 10 nM [3H]-LY354740 binding, membranes of mGlu2 transfected CHO cells, room temperature, 1 hour; read-out: mGluR2 Ki
T1 construct: expressed in transfected cells; membranes prepared from them
Description: [^3H]-LY354740 Binding on mGlu2 Transfected CHO Cell Membranes
Transfection and cell culture: cDNA encoding the rat mGlu2 receptor protein in pBluescript II was subcloned into the eukaryotic expression vector pcDNA I-amp from Invitrogen (NV Leek, The Netherlands). This vector construct (pcD1mGR2) was co-transfected with a psvNeo plasmid encoding the gene for neomycin resistance, into CHO cells by a modified calcium phosphate method described by Chen & Okayama (1988). The cells were maintained in Dulbecco's Modified Eagle medium with reduced L-glutamine (2 mM final concentration) and 10% dialyzed foetal calf serum from Gibco BRL (Basel, Switzerland). Selection was made in the presence of G-418 (1000 μg/ml final). Clones were identified by reverse transcription of 5 μg total RNA, follow by PCR using mGlu2 receptor specific primers 5′-[…]-3′ (SEQ ID NO: 1) and 5′-[…]-3′ (SEQ ID NO:2) in 60 mM Tris HCl (pH 10), 15 mM (NH4)2SO4, 2 mM MgCl2, 25 units/ml Taq Polymerase with 30 cycles annealing at 60° C. for 1 min., extension at 72° C. for 30 s, and 1 min. 95° C. denaturation.
Membrane preparation: Cells, cultured as above, were harvested and washed three times with cold PBS and frozen at −80° C. The pellet was resuspended in cold 20 mM HEPES-NaOH buffer containing 10 mM EDTA (pH 7.4), and homogenized with a polytron (Kinematica, AG, Littau, Switzerland) for 10 s at 10 000 rpm. After centrifugation for 30 min. at 4° C., the pellet was washed once with the same buffer, and once with cold 20 mM HEPES-NaOH buffer containing 0.1 mM EDTA, (pH 7.4). Protein content was measured using the Pierce method (Socochim, Lausanne, Switzerland) using bovine serum albumin as standard.
[^3H]-LY354740 binding: After thawing, the membranes were resuspended in cold 50 mM Tris-HCl buffer containing 2 mM MgCl2 and 2 mM CaCl2, (pH 7) (binding buffer). The final concentration of the membranes in the assays was 25 μg protein/ml. Inhibition experiments were performed with membranes incubated with 10 nM [^3H]-LY354740 at room temperature, for 1 hour, in the presence of various concentrations of the compound to be tested. Following the incubations, membranes were filtered onto Whatmann GF/C glass fiber filters and washed 5 times with cold binding buffer. Non specific binding was measured in the presence of 10 μM DCG IV. After transfer of the filters into plastic vials containing 10 ml of Ultima-gold scintillation fluid (Packard, Zürich, Switzerland), the radioactivity was measured by liquid scintillation in a Tri-Carb 2500 TR counter (Packard, Zürich, Switzerland).
Data analysis: The inhibition curves were fitted with a four parameter logistic equation giving IC50 values, and Hill coefficients.

T1 sequence (P31421 19-872): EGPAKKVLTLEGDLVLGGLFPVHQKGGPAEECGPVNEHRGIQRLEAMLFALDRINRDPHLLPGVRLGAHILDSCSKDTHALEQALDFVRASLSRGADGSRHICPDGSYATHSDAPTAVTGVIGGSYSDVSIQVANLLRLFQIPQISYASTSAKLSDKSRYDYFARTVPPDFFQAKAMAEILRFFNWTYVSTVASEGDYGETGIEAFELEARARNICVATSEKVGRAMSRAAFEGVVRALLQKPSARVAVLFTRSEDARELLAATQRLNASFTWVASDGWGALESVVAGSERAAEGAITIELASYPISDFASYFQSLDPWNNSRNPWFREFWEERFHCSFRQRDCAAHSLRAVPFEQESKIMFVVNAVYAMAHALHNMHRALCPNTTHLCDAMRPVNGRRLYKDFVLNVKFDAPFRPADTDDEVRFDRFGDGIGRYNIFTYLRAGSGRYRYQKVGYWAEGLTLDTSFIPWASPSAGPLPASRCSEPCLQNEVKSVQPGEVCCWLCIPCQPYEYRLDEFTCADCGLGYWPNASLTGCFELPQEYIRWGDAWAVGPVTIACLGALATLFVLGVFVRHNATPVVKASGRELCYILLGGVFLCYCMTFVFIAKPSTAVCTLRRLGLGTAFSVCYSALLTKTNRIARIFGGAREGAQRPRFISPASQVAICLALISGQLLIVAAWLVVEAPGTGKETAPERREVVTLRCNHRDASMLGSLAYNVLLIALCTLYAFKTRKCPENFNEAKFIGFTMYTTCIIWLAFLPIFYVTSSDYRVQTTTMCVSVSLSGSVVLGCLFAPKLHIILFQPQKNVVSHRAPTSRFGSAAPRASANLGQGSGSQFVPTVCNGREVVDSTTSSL

melting point [°C] | Ki [1] [nM] | Structure (SMILES)
236 | 43 | Cc1cc(-c2cnn3c(C(F)(F)F)cc(-c4cccc(C(F)(F)F)c4)nc23)cc(C)n1 [Example 4.24, 5-(3-Trifluoromethyl-phenyl)-3-(2,6-dimethyl-pyridin-4-yl)-7-trifluoromethyl-pyrazolo[1,5-a]pyrimidine]
250 | 45 | Cc1cc(-c2cnn3c(C(F)(F)F)cc(-c4ccc(C(F)(F)F)c(F)c4)nc23)ccn1 [Example 4.35, 5-(3-Fluoro-4-trifluoromethyl-phenyl)-3-(2-methyl-pyridin-4-yl)-7-trifluoromethyl-pyrazolo[1,5-a]pyrimidine]
247 | 48 | FC(F)(F)COc1ccc(-c2cc(C(F)(F)F)n3ncc(-c4ccncc4)c3n2)cc1C(F)(F)F [Example 4.43, 5-[4-(2,2,2-Trifluorothoxy)-3-trifluoromethyl-phenyl]-3-pyridin-4-yl-7-trifluoromethyl-pyrazolo[1,5-a]pyrimidine]
219 | 43 | N#Cc1ncn2c(C(F)(F)F)cc(-c3ccc(Cl)c(Cl)c3)nc12 [Example 5.20, 5-(3,4-Dichloro-phenyl)-7-trifluoromethyl-imidazo[1,5-a]pyrimidine-8-carbonitrile]
